# Experimental data published in patent US7094581B2, “Hyaluronan synthases and methods of making and using same” (The Board of Regents of the University of Oklahoma, priority 1998, dated 2006).
# “And” between values parts separate entries of the source, which are not always exact repeats. Identical values can stand only once. Like-named read-outs stand apart in the source and are kept apart here.
# What was measured:
# [1] = test system: wild-type seHAS; test: Utilization of UDP-GlcUA and UDP-GlcNAc by wild-type seHAS after NEM or sodium arsenite treatment; assay type: biochemical, Streptococcus equisimilis; settings: membranes 4° C. 1 h with 5 mM NEM or 10 mM sodium arsenite
# Procedure: FIG. 3. Effect of NEM or sodium arsenite treatment on the utilization of UDP-GIcUA and UDP-GIcNAc by wild-type seHAS. E. coli membranes containing seHAS protein were incubated at 4° C. for 1 h in PBS containing 5 mM NEM or 10 mM Sodium Arsenite (SodArs), and the control membranes were incubated with PBS alone. Michaelis-Menten constants (Km) were calculated from the activities of seHAS at varying concentrations of UDP-GIcUA or UDP-GIcNAc.
# Modification of the protein by NEM could affect any one or several of the six discrete functions that HAS must perform in order to synthesize HA. In order to determine if one of the nucleotide-sugar binding sites was affected by NEM, we examined the UDP-GIcUA and UDP-GIcNAc saturation profiles for treated and untreated seHAS (FIG. 3 and Table III).
# (§1) E. coli SURE cells transformed with plasmids containing various seHAS mutants were grown in LB medium with vigorous shaking at 32° C. to A600 ˜0.8 and induced with 1 mM isopropyl-β-thiogalactoside for 3 h. Cells were harvested and membranes were prepared as described previously. The kinetic constants for HAS were determined at 37° C. in 100 μl of 50 mM sodium and potassium phosphate, pH 7.0, with 20 mM MgCl2, 1 mM DTE, 240 μM UDP-GIcUA, 0.7 μM UDP-[^14C]GIcUA and 0.6–1.0 mM UDP-GIcNAc. in 100 μl of 25 mM sodium and potassium phosphate, pH 7, containing 50 mM NaCl, 20 mM MgCl2, 1 mM dithiothreitol, 1 mM UDP-GIcUA, 0.68 μM UDP-GIcUA and 1 mM UDP-GIcNAc. Some assays also contained 0.1 mM EDTA and 20% glycerol (v/v). To initiate the enzyme reaction, ˜0.5–40 μg of membrane protein was added and the mixtures were gently shaken in a MicroMixer X-36 (Tiatec) at 30° C. for 1–2 h. Reactions were terminated by the addition of SDS to a final concentration of 2% (w/v). The incorporation of radioactive [^14C]GIcUA was determined by descending paper chromatography and the Km and Vmax values were determined as described by Tlapak-Simmons et al (1999b). Data were analyzed by the methods of Michaelis-Menton or Hill. Protein content was determined by the method of Bradford using bovine serum albumin as the standard. All Cys-mutant or sulfhydryl-treated seHAS samples were assayed in duplicate or triplicate using two or three independent membrane preparations. Results are presented as the mean±standard errors. All enzyme assays were performed under conditions that were linear with respect to time and protein concentration. None of the seHAS variant enzymes were unstable under the conditions employed.
# [2] = molecular target: T1, spHAS (Streptococcus pyogenes serotype M6, UniProt Q5X9A9); test: Effect of sulfhydryl reagents on spHAS activity in E. coli membranes; assay type: biochemical; settings: E. coli membranes with spHAS-H6, 4° C. 1 h, 5 mM NEM, 5 mM IAA, 0.5 mM 5,5′-dithiobis-(2-nitrobenzoic acid), 0.05 mM methylmethanethiosulfonate, 10 mM sodium arsenite
# T1 construct: made in house; host or cells: E. coli SURE cells (isolated membranes)
# T1 sequence (Q5X9A9 1-419): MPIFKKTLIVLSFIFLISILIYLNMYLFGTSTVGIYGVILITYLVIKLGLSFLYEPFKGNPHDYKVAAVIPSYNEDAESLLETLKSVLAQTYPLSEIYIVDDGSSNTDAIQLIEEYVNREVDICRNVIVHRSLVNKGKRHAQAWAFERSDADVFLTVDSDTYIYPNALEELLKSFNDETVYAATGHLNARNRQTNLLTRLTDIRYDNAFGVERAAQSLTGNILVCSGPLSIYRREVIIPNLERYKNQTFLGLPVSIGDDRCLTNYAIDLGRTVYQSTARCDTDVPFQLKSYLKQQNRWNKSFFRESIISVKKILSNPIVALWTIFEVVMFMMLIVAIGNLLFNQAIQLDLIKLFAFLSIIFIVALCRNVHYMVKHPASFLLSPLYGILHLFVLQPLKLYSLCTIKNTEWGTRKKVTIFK
# Procedure: (§2) SeHAS is the smallest HAS protein (417 amino acids) and contains four Cys residues. […] To explore the possible role of cysteines in the function of HAS, the activities of seHAS and spHAS were assayed in the presence of different sulfhydryl reagents (Table II). […] The inhibition of each HAS by NEM was examined in more detail with respect to time of incubation and NEM concentration (FIG. 2).
# as §1, with “Results are presented as the mean±standard errors.” left out, “concentration.” for “concentration. None of the seHAS variant enzymes were unstable under the conditions employed.”
# (§3) Stock solutions (10–100 mM) of NEM, IAA or other sulfhydryl reagents were made in PBS, pH 7.0. Suspensions of membranes containing seHAS or spHAS were incubated with 0–5 mM of the sulfhydryl reagent at 4° C. and the reactions were stopped by adding DTE to a final concentration of 10 mM. The membranes were then assayed for HAS activity as described above.
# [3] = test system: seHAS; test: Effect of sulfhydryl reagents on seHAS activity in E. coli membranes; assay type: biochemical, Streptococcus equisimilis; settings: E. coli membranes with seHAS-H6, 4° C. 1 h, 5 mM NEM, 5 mM IAA, 0.5 mM 5,5′-dithiobis-(2-nitrobenzoic acid), 0.05 mM methylmethanethiosulfonate, 10 mM sodium arsenite
# Procedure: as §2
# as §1, with “Results are presented as the mean±standard errors.” left out, “concentration.” for “concentration. None of the seHAS variant enzymes were unstable under the conditions employed.”
# as §3
smiles,measurement,setting,value
CCN1C(=O)C=CC1=O [N-ethylmaleimide],"Vmax of treated wild-type seHAS, UDP-GlcNAc",[1],7.3 ± 2.2 nmol/µg/h
same,"Vmax of treated wild-type seHAS, UDP-GlcUA",[1],7.3 ± 2.2 nmol/µg/h
same,Km,[1]; read-out: Km for UDP-GlcNAc of treated wild-type seHAS,82 ± 17 µM
same,Km,[1]; read-out: Km for UDP-GlcUA of treated wild-type seHAS,57 ± 5 µM
same,"Inhibition of HAS Activity (% relative to control), spHAS",[2],60 ± 3.5%
same,"Inhibition of HAS Activity (% relative to control), spHAS",[2]; listed as NEM,60–70%
same,"Inhibition of HAS Activity (% relative to control), seHAS",[3],70 ± 4.8%
same,"Inhibition of HAS Activity (% relative to control), seHAS",[3]; listed as NEM,~70% and 60–70%
